# Test results published in patent US7592326B2, “Method for stimulating the immune, inflammatory or neuroprotective response” (priority 2004, dated 2009).
# Marks after values point to notes of the source that are not given here.
# Assays:
# ERK = assay: Western blot signaling in human DCs: ERK; format: cell-based; conditions: data not shown
# Method: Human PBMC were isolated by Ficoll density gradient centrifugation from leukopacks supplied by the Department of Transfusion Medicine (Clinical Center, National Institute of Health, Bethesda, Md.). Monocytes were purified (>95%) from human PBMC with MACS CD14 monocyte isolation kit (Miltenyi Biotech Inc., Auburn, Calif.) according to the manufacturer's instruction. DCs were generated as described previously (Yang et al., 2001). In brief, DCs were generated by incubating purified monocytes at 2×10^5/ml in RPMI 1640 containing 10% FBS, 2 mM glutamine, 25 mM HEPES, 100 U/ml penicillin, 100 ug/ml streptomycin, 50 ng/ml recombinant human GM-CSF (PeproTech, Rocky Hill, N.J.), and 50 ng/ml recombinant human IL-4 (PeproTech) at 37° C. in a CO2 (5%) incubator for 7 days. On day 3 and 5 of the incubation, half of the culture medium was replaced with pre-warmed (37° C.) fresh GM-CSF- and IL-4-containing medium. On day 7, DCs were collected, washed three times with PBS, and serum-starved for 8 hours by incubating in serum-free RPMI-1640 containing GM-CSF and IL-4 (2×10^5/ml) at 37° C. in a CO2 (5%) incubator. Subsequently, DCs (2×10^6/sample) were incubated at 37° C. in the absence or presence of c-di-GMP or GMP (Sigma, St. Louis, Mo.) at concentrations specified for 5 or 30 minutes. […]
# lung leukocytes = assay: Lung leukocyte accumulation in Klebsiella-infected mice (lung digest, flow cytometry); format: in vivo, Balb/c mice
# P. carinii = format: in vivo, Pneumocystis carinii; conditions: C57BL/6 mice pretreated 48- and 24 h prior to infection
# C. neoformans strain 52 = assay: Murine model of C. neoformans infection (proposed procedure)
smiles,measurement,setting,value
"Nc1nc(=O)c2ncn([C@@H]3OC4COP(=O)(O)O[C@H]5[C@@H](O)[C@H](n6cnc7c(=O)nc(N)[nH]c76)O[C@@H]5COP(=O)(O)OC4C3O)c2[nH]1 (some centres unmarked) [c-di-GMP, Bis(3′→5′)-cyclic diguanylic acid]",activation of ERK,ERK,did not activate
same,increase in the number of neutrophils in the lungs of infected mice vs control-pretreated,"lung leukocytes; 48 hr post infection, p<0.01",3 fold
same,total number of lung leukocytes vs control-pretreated,"lung leukocytes; 48 hr post infection, p<0.01",significant increase
same,Total number lung cells,"lung leukocytes; i.n. pretreatment 48 and 24 hr prior, lung digests 48 hrs after K. pneumoniae (kp), uninfected 2.7 × 10^7",4.67 × 10^7*
same,trafficking of myeloid or plasmacytoid DC to the lung in response to bacterial challenge,"lung leukocytes; i.n., data not shown",did not alter
same,"αβTcr^+, CD69^+","lung leukocytes; lung digests 48 hrs after kp, uninfected 0.33 × 10^5",3.7 × 10^5*
same,"DX5^+, CD69^+","lung leukocytes; lung digests 48 hrs after kp, uninfected 0.78 × 10^5",5.98 × 10^5**
same,PMN,"lung leukocytes; lung digests 48 hrs after kp, uninfected 0.8 × 10^6",22 × 10^6**
same,DX5^+ (NK),"lung leukocytes; lung digests 48 hrs after kp, uninfected 1.3 × 10^6",3.8 × 10^6
same,"DX5^+, αβγδTcr^+(NK T^+)","lung leukocytes; lung digests 48 hrs after kp, uninfected 1.6 × 10^5",6.8 × 10^5*
same,Mono/Macrophage,"lung leukocytes; lung digests 48 hrs after kp, uninfected 2.3 × 10^7",1.9 × 10^7
same,αβTcr^+,"lung leukocytes; lung digests 48 hrs after kp, uninfected 2.6 × 10^6",5.5 × 10^6**
same,survival,P. carinii,increased survival
same,pathogen burden compared with controls,C. neoformans strain 52; C57BL/6 mice,significantly reduced
same,pulmonary eosinophilia,C. neoformans strain 52; C57BL/6 mice,significantly reduced
same,IFN production and total numbers of CD4^+/IFN-γ^+ cells,"C. neoformans strain 52; lung, C57BL/6 mice",increased
same,survival,"C. neoformans strain 52; oral, intranasal, i.p., i.v., s.q., or i.m. administration",increase survival
